Patent publication US11666558B2, “Methods of treating intraocular pressure with activators of Tie-2” (EyePoint Pharmaceuticals, Inc., priority 2015, dated 2023)
Read-outs that look alike come from different tables or passages of the source.

Assay: Ocular tissue concentrations (aqueous humor, vitreous humor, iris, retina, choroid, cornea) after topical ocular, subcutaneous and intravitreal administration
Type: in vivo, New Zealand White rabbits
Settings: New Zealand White, rabbit; for concentration at 2 h / concentration at 4 h / concentration at 0.5 hr / concentration at 1 h: subcutaneous, 5 mg/kg/dose, subcutaneous 5 mg/kg/dose; for concentration at 6 h / concentration at 24 h / concentration at 48 h / concentration at 72 h: other: intravitreal, 2.5 mg/eye
Method: To measure the concentration of Compound 1 in plasma and ocular tissues following topical ocular, subcutaneous, and intravitreal administration, New Zealand White rabbits were administered Compound 1, and plasma and ocular samples were collected at pre-determined time points. Compound 1 formulations were prepared fresh on each day of dosing.
Ocular tissue samples from both eyes of each animal were collected and weights were recorded. Plasma and ocular tissue sample concentrations of Compound 1 were determined by LC-MS/MS.
New Zealand White rabbits weighing 2.5 to 3.5 kg were used on this study. Rabbits were housed one per cage. Animals were not fasted and only healthy animals with no ocular illness were used. Two rabbits per group were sacrificed at each of four ocular tissue sampling time points for a total of eight rabbits per group.
Animals were anesthetized for ocular (topical) and intravitreal dosing following the 12IA7 IACUC protocol. Each rabbit received a bolus dose of test formulation either via topical ocular administration 3 times daily on Days 1 and 2 (at 0, 6, and 12 hours), and once on Day 3 (at 0 hours) into both eyes; via intravitreal administration into both eyes once on Day 1 (at 0 hours); or via subcutaneous administration 2 times daily on Days 1 and 2 (at 0 and 8 hours) and once daily on Day 3 (at 0 hours). Doses were given within an approximately 1 hour window each day where applicable.
On Day 1, for intravitreal administration, or on Day 3, for topical ocular and subcutaneous administration, at the appropriate ocular tissue collection time points, animals were euthanized and both eyes were enucleated immediately. Following enucleation, each eye was rinsed with phosphate-buffered saline. Ocular tissue samples from both eyes of each animal were collected at predetermined time points and weights were recorded. All the samples were frozen immediately on dry ice, and stored at −60° C. to −80° C. pending bioanalysis.
An LC-MS/MS method was developed for the determination of Compound 1 in rabbit aqueous tissues (plasma, aqueous and vitreous humor) and solid ocular tissue samples. A pre-study standard curve was analyzed to determine the specificity, range, and lower limit of quantitation of the method. Plasma and tissue homogenate study samples were extracted and analyzed. All the samples were treated identically to the standards.
One eight-point standard curve was used in each analytical batch. To be accepted, each batch must have had at least five of eight standards with accuracy within ±20% of nominal, except at the lower limit of quantification (LLOQ), where ±25% was acceptable.
Concentration versus time data is plotted in FIGS. 3-16. All data are expressed as ng/g of the free drug. Samples that were below the limit of quantitation (0.2 ng/mL) were not used in the calculation of averages.

[1] = iris, TABLE 16: Iris, OD, free acid, Group 3, read-out: Iris Conc. (ng/g) OD
[2] = iris, TABLE 16: Iris, OS, free acid, Group 3, read-out: Iris Conc. (ng/g) OS
[3] = iris, TABLE 16: Iris, free acid, Group 3, read-out: Iris Average
[4] = retina homogenate, Retina homogenate, left eye, intravitreal 2.5 mg/eye (group 5), individual animals, read-out: Conc. (ng/mL) OS
[5] = retina homogenate, Retina homogenate, OD, sodium salt, intravitreal 2.5 mg/eye, Group 4, read-out: Retina Conc. (ng/mL) OD
[6] = retina homogenate, Retina homogenate, right eye, intravitreal 2.5 mg/eye (group 5), individual animals, read-out: Conc. (ng/mL) OD
[7] = retina homogenate, Retina homogenate, OS, sodium salt, intravitreal 2.5 mg/eye, Group 4, read-out: Retina Conc. (ng/mL) OS
[8] = retina homogenate, Retina homogenate, OD, sodium salt, Group 2, read-out: Retina Conc. (ng/mL) OD
[9] = retina homogenate, Retina homogenate, OS, sodium salt, Group 2, read-out: Retina Conc. (ng/mL) OS
[10] = retina homogenate, Retina homogenate, OD, free acid, Group 3, read-out: Retina Conc. (ng/mL) OD
[11] = retina homogenate, TABLE 16: Retina homogenate, OD, free acid, Group 3, read-out: Retina Conc. (ng/mL) OD
[12] = retina, Retina, OD, sodium salt, intravitreal 2.5 mg/eye, Group 4, read-out: Retina Conc. (ng/g) OD
[13] = retina, Retina, sodium salt, intravitreal 2.5 mg/eye, Group 4, read-out: Retina Avg.
[14] = retina, Retina, OS, sodium salt, intravitreal 2.5 mg/eye, Group 4, read-out: Retina Conc. (ng/g) OS

concentration at 2 h [1]: 30.5 ng/g | concentration at 2 h [2]: 29.5 ng/g | concentration at 2 h [3]: 27.6 ng/g | concentration at 4 h [1]: 26.5 ng/g | concentration at 4 h [2]: 16.9 ng/g | concentration at 4 h [3]: 17.5 ng/g | concentration at 6 h [4]: 154000 ng/mL | concentration at 24 h [5]: 29200 ng/mL | concentration at 24 h [6]: 130000 ng/mL | concentration at 48 h [5]: 6490 ng/mL | concentration at 48 h [7]: 6030 ng/mL | concentration at 48 h [6]: 66700 ng/mL | concentration at 72 h [5]: 750 ng/mL | concentration at 72 h [7]: 370 ng/mL | concentration at 72 h [4]: 10800 ng/mL | concentration at 72 h [6]: 9890 ng/mL | concentration at 0.5 hr [8]: 2.77 ng/mL | concentration at 0.5 hr [9]: 4.36 ng/mL | concentration at 1 h [10]: 0.942 ng/mL | concentration at 1 h [8]: 2.04 ng/mL | concentration at 1 h (retina homogenate, Retina homogenate, OS, free acid, Group 3, read-out: Retina Conc. (ng/mL) OS): 0.63 ng/mL | concentration at 1 h [9]: 3.93 ng/mL | concentration at 2 h [10]: 0.574 ng/mL | concentration at 2 h [8]: 1.36 ng/mL | concentration at 2 h [9]: 1.62 ng/mL | concentration at 4 h [8]: 1.79 ng/mL | concentration at 1 h [11]: 0.942 ng/mL | concentration at 1 h (retina homogenate, TABLE 16: Retina homogenate, OS, free acid, Group 3, read-out: Retina Conc. (ng/mL) OS): 0.63 ng/mL | concentration at 2 h [11]: 0.574 ng/mL | concentration at 6 h [12]: 431000 ng/g | concentration at 6 h [13]: 774000 ng/g | concentration at 24 h [12]: 321000 ng/g | concentration at 24 h [14]: 308000 ng/g | concentration at 24 h [13]: 356000 ng/g | concentration at 48 h [12]: 71400 ng/g | concentration at 48 h [14]: 66300 ng/g | concentration at 48 h (retina, Retina, average, intravitreal 2.5 mg/eye (group 5), read-out: Avg.): 680000 ng/g | concentration at 48 h (retina, Retina, left eye, intravitreal 2.5 mg/eye (group 5), individual animals, read-out: Conc. (ng/g) OS): 154000 ng/g | concentration at 48 h (retina, Retina, right eye, intravitreal 2.5 mg/eye (group 5), individual animals, read-out: Conc. (ng/g) OD): 734000 ng/g
SMILES: COC(=O)N[C@@H](Cc1ccccc1)C(=O)N[C@@H](Cc1ccc(NS(=O)(=O)O)cc1)c1csc(-c2cccs2)n1 [Compound 1]
